The text below walks through data of US12617773B2, “Azetidin-3-ylmethanol derivatives as CCR6 receptor modulators” (Idorsia Pharmaceuticals Ltd, priority 2020, dated 2026).

For the assay, the target named is T1, human CCR6 (Homo sapiens, UniProt P51684).
T1 construct: expressed in transfected cells; host or cells: HEK-293
T1 sequence (P51684 1-374): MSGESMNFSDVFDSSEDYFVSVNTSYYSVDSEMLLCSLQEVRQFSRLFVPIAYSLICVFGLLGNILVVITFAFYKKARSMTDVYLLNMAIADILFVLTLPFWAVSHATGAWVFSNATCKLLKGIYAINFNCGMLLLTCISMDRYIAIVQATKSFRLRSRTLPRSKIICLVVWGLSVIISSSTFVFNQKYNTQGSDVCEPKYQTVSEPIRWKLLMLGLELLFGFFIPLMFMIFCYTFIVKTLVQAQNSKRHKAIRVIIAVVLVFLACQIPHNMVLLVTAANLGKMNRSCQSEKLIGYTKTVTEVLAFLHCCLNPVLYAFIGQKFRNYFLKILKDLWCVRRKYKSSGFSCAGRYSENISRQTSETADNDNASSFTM
The assay can be described thus: FLIPR assay (inhibition of CCL20-induced calcium signal). In kind it is cell-based. The following applies: HEK-293 cells expressing human CCR6; mean values where determined several times; read-out: FLIPR IC50. In outline:
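Dye-loaded HEK-293 cells expressing human CCR6 were preincubated with compound for 30 min at room temperature in the dark, then challenged with 10 nM CCL20 (final). Fluorescence was tracked on FLIPR, and baseline-subtracted peak emission over base after agonist addition gave inhibition dose-response curves for IC50.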
With `CCC1(O)CCC(c2cncc([C@@](O)(c3ccc(C(C)C)cc3)C3(C)CN(C)C3)c2)C1` (stereo partly drawn) [Example 298, 3-{5-[(R)-(1,3-Dimethyl-azetidin-3-yl)-hydroxy-(4-isopropyl-phenyl)-methyl]-pyridin-3-yl}-1-ethyl-cyclopentanol], the 50% inhibitory concentration (IC50) – broadly, the concentration needed to halve the response being measured – is 0.0652 µM. `Cc1csc(C2CCN(c3cncc([C@@](O)(c4ccc(C(C)C)cc4)C4(C)CN(C)C4)c3)C2)n1` (stereo partly shown) [Example 231]: the half-inhibitory concentration (IC50) was 0.0149 µM.

Consider `CC(C)c1ccc([C@](O)(c2cncc(-c3noc(C4CCN(C(=O)C5CCCC5)CC4)n3)c2)C2(C)CN(C)C2)cc1` [Example 375], for which the IC50 stood at 0.0397 µM. With `COc1ccc(C(C)(O)CCc2cncc([C@@](O)(c3ccc(C(C)C)cc3)C3(C)CN(C)C3)c2)cc1` (stereo partly shown) [Example 68], the half-maximal inhibitory concentration (IC50) is 0.0179 µM. With `CC(C)c1ccc([C@](O)(c2cncc(C#Cc3cc4ccccc4[nH]3)c2)C2(C)CN(C)C2)cc1` [Example 47, (R)-(1,3-Dimethyl-azetidin-3-yl)-[5-(1H-indol-2-ylethynyl)-pyridin-3-yl]-(4-isopropyl-phenyl)-methanol], the concentration for half-maximal inhibition (IC50) was 0.035 µM. With `CCOc1ccc(C(O)(c2cncc(N3CCCC3)c2)C2(C)CN(C)C2)cc1` (stereo not shown) [Example 156], the concentration for half-maximal inhibition (IC50) was 0.147 µM.

For `CC(C)c1ccc([C@](O)(c2cncc(N3CCC4(CCOCC4)C3=O)c2)C2(C)CN(C)C2)cc1` [Example 216], the IC50 came out at 0.476 µM. The same measure for `CC(C)c1ccc([C@](O)(c2cncc(C#CC(C)(O)c3ccn(C)n3)c2)C2(C)CN(C)C2)cc1` (stereo partly shown) [Example 35]: 0.141 µM. On to `COCCOC(=O)N1CCC(c2nc(-c3cncc([C@@](O)(c4ccc(C(C)C)cc4)C4(C)CN(C)C4)c3)no2)CC1` [Example 380], for which the half-maximal inhibitory concentration (IC50) worked out at 0.0715 µM. The same measure for `CN1CC(C)(C(O)(c2ccc(OC(F)(F)F)cc2)c2ccc(OCC3COC3)nc2)C1` (stereo not shown) [Example 269, (1,3-Dimethyl-azetidin-3-yl)-[6-(oxetan-3-ylmethoxy)-pyridin-3-yl]-(4-trifluoromethoxy-phenyl)-methanol]: 0.224 µM; for `CC(C)Oc1ccc([C@](O)(c2cncc(-c3noc(C(C)(C)O)n3)c2)C2(C)CN(C)C2)cc1` [Example 536]: 2.45 µM; for `CC(C)c1ccc([C@](O)(c2cncc(-c3noc(C(C)(C)O)n3)c2)C2(C)CN(C3CC3)C2)cc1` [Example 449, 2-(3-{5-[(R)-(1-Cyclopropyl-3-methyl-azetidin-3-yl)-hydroxy-(4-isopropyl-phenyl)-methyl]-pyridin-3-yl}-[1,2,4]oxadiazol-5-yl)-propan-2-ol]: 0.0408 µM. For the molecule `CC(C)c1ccc([C@](O)(c2cncc(-c3noc(C4CC(=O)N(c5ccccc5)C4)n3)c2)C2(C)CN(C)C2)cc1` (stereo partly shown) [Example 355], the half-maximal inhibitory concentration (IC50) was 0.0248 µM. On to `CC(=O)N1CC(Cc2noc(-c3cncc([C@@](O)(c4ccc(C(C)C)cc4)C4(C)CN(C)C4)c3)n2)C1` [Example 523], for which the IC50 was 0.297 µM. The same measure for `CC(C)c1ccc([C@](O)(c2cncc(N3C[C@H](C)O[C@@H](C)C3)c2)C2(C)CN(C)C2)cc1` [Example 228]: 0.0446 µM; for `CC(C)c1ccc([C@](O)(c2cncc(-c3noc(C4CC(=O)N(C)C(=O)C4)n3)c2)C2(C)CN(C)C2)cc1` [Example 504]: 0.143 µM; for `CC(=O)NC(C)(C)c1nc(-c2cncc([C@@](O)(c3ccc(C(C)C)cc3)C3(C)CN(C)C3)c2)no1` [Example 350]: 0.242 µM. For the molecule `Cc1cccc(C(C)(O)C#Cc2cncc([C@@](O)(c3ccc(C(C)(C)C)cc3)C3(C)CN(C)C3)c2)n1` (stereo partly shown) [Example 658], the 50% inhibitory concentration (IC50) was 0.0866 µM.

With `CN1CC(F)(C(O)(c2ccc(OC(F)(F)F)cc2)c2cncc(N3CCCC3)c2)C1` (stereo not shown) [Example 1, (3-Fluoro-1-methyl-azetidin-3-yl)-(5-pyrrolidin-1-yl-pyridin-3-yl)-(4-trifluoromethoxy-phenyl)-methanol], the IC50 turned out to be 0.114 µM. The same measure for `COCC1(Cc2nc(-c3cncc([C@@](O)(c4ccc(C(C)C)cc4)C4(C)CN(C)C4)c3)no2)CC1` [Example 138]: 0.0458 µM; for `CC(C)c1ccc([C@](O)(c2cncc(-c3noc(C4CCN(S(C)(=O)=O)CC4)n3)c2)C2(C)CN(C)C2)cc1` [Example 381]: 0.0534 µM. In the case of `CC(C)c1ccc([C@](O)(c2cnnc(Oc3ccc(CCO)cc3)c2)C2(C)CN(C)C2)cc1` [Example 395], the IC50 came out at 0.0601 µM. The same measure for `CC(C)c1ccc([C@](O)(c2cncc(C#CCCO)c2)C2(C)CN(C)C2)cc1` [Example 22]: 0.126 µM; for `CC(C)c1ccc([C@](O)(c2cncc(-c3noc(C4CCN(S(=O)(=O)C5CCCC5)CC4)n3)c2)C2(C)CN(C)C2)cc1` [Example 386]: 0.041 µM. In the case of `CC(C)c1ccc([C@](O)(c2cncc(C3CCC(O)(C(C)C)C3)c2)C2(C)CN(C)C2)cc1` (stereo partly drawn) [Example 299, 3-{5-[(R)-(1,3-Dimethyl-azetidin-3-yl)-hydroxy-(4-isopropyl-phenyl)-methyl]-pyridin-3-yl}-1-isopropyl-cyclopentanol], the IC50 is 0.0806 µM. The same measure for `COc1cccc(C(C)(O)CCc2cncc([C@@](O)(c3ccc(C(C)C)cc3)C3(C)CN(C)C3)c2)n1` (stereo partly shown) [Example 72]: 0.015 µM; for `CC(=O)N1CCc2nc(-c3cncc([C@@](O)(c4ccc(C(C)C)cc4)C4(C)CN(C)C4)c3)ccc2C1` [Example 684, 1-(2-{5-[(R)-(1,3-Dimethyl-azetidin-3-yl)-hydroxy-(4-isopropyl-phenyl)-methyl]-pyridin-3-yl}-7,8-dihydro-5H-[1,6]naphthyridin-6-yl)-ethanone]: 0.125 µM. The same measure for `CN1CC(C)([C@](O)(c2ccc(C3(C(F)(F)F)CC3)cc2)c2cncc(-c3noc(C(C)(C)O)n3)c2)C1` [Example 534]: 0.047 µM. With `CC(C)c1ccc([C@](O)(c2ccnc(N3CCCC3)c2)C2(C)CN(C)C2)cc1` [Example 273, (S)-(1,3-Dimethyl-azetidin-3-yl)-(4-isopropyl-phenyl)-(2-pyrrolidin-1-yl-pyridin-4-yl)-methanol], the concentration for half-maximal inhibition (IC50) was 0.032 µM. `CC1([C@](O)(c2ccc(OC(F)(F)F)cc2)c2cncc(N3CCCC3)c2)CN(C2CC2)C1` [Example 9, (R)-(1-Cyclopropyl-3-methyl-azetidin-3-yl)-(5-pyrrolidin-1-yl-pyridin-3-yl)-(4-trifluoromethoxy-phenyl)-methanol]: the IC50 came to 0.0747 µM.

Turning to `[2H]C([2H])([2H])C(=O)N(C)C1(c2nc(-c3cncc([C@@](O)(c4ccc(C(C)C)cc4)C4(C)CN(C)C4)c3)no2)CC1` [Example 333], the half-inhibitory concentration (IC50) was 0.113 µM. For `CCCCc1ccc([C@](O)(c2cncc(-c3noc(C(C)(C)O)n3)c2)C2(C)CN(C)C2)cc1` [Example 570], the IC50 turned out to be 0.0658 µM.

Turning to `CC(C)c1ccc([C@](O)(c2cncc(C#CC(C)(O)c3ccccc3)c2)C2(C)CN(C)C2)cc1` (stereo partly shown) [Example 25], the 50% inhibitory concentration (IC50) worked out at 0.00769 µM. On to `CC(C)c1ccc(C(O)(c2ccnc(N3CCC[C@@H]3CO)c2)C2(C)CN(C)C2)cc1` (stereo partly shown) [Example 274], for which the IC50 amounted to 0.252 µM. Consider `CC(C)c1ccc([C@](O)(c2cncc(N3CC4(CC(C5CC5)C4)OC3=O)c2)C2(C)CN(C)C2)cc1` (stereo partly shown) [Example 203], for which the IC50 was found to be 0.0649 µM. As to `COCC(=O)NC(C)(C)C#Cc1cncc([C@@](O)(c2ccc(C(C)C)cc2)C2(C)CN(C)C2)c1` [Example 590], the IC50 was found to be 0.235 µM. For the molecule `CN1CC(C)(C(O)(c2ccc(OC(F)(F)F)cc2)c2ccc(Oc3ccccc3)nc2)C1` (stereo not shown) [Example 147], the half-inhibitory concentration (IC50) turned out to be 0.0635 µM. The same measure for `CC(C)c1ccc(C(O)(c2cncc(C3CC3)c2)C2(C)CN(C)C2)cc1` (stereo not shown) [Example 287]: 0.0428 µM; for `CC(=O)N1CCc2nc(-c3cncc([C@@](O)(c4ccc(C(C)C)cc4)C4(C)CN(C)C4)c3)ncc2C1` [Example 683, 1-(2-{5-[(R)-(1,3-Dimethyl-azetidin-3-yl)-hydroxy-(4-isopropyl-phenyl)-methyl]-pyridin-3-yl}-7,8-dihydro-5H-pyrido[4,3-d]pyrimidin-6-yl)-ethanone]: 0.105 µM; for `CN1CC(C)([C@](O)(c2ccc(C(C)(F)F)cc2)c2cncc(-c3noc(C(C)(C)O)n3)c2)C1` [Example 548]: 0.742 µM. The same measure for `CC(C)c1ccc([C@](O)(c2cncc(-c3noc(COC(C)(C)C)n3)c2)C2(C)CN(C)C2)cc1` [Example 109]: 0.0212 µM. Turning to `CC(C)c1ccc([C@](O)(c2cncc(C(=O)NC3CCCC3)c2)C2(C)CN(C)C2)cc1` [Example 306, N-Cyclopentyl-5-[(R)-(1,3-dimethyl-azetidin-3-yl)-hydroxy-(4-isopropyl-phenyl)-methyl]-nicotinamide], the IC50 was 0.101 µM.

With `CC(C)c1ccc([C@](O)(c2cncc(-c3noc(C(C)(C)O)n3)c2)C2(F)CN(C3CC3)C2)cc1` [Example 446, 2-(3-{5-[(S)-(1-Cyclopropyl-3-fluoro-azetidin-3-yl)-hydroxy-(4-isopropyl-phenyl)-methyl]-pyridin-3-yl}-[1,2,4]oxadiazol-5-yl)-propan-2-ol], the IC50 came out at 0.0484 µM. For `COc1cncc([C@@](O)(c2ccc(C(C)C)cc2)C2(C)CN(C)C2)c1` [Example 257], the IC50 was found to be 0.0874 µM. Turning to `CC(C)c1ccc(C(O)(c2cncc(CCC(C)(O)c3ccccc3)c2)C2(C)CN(C)C2)cc1` (stereo not shown) [Example 60], the half-maximal inhibitory concentration (IC50) worked out at 0.00906 µM. The same measure for `[2H]C([2H])([2H])C(=O)N1CC(c2nc(-c3cncc([C@@](O)(c4ccc(C(C)C)cc4)C4(C)CN(C)C4)c3)no2)C1` [Example 343]: 0.532 µM.
